pIC50: −log10 of the molar value. Read-outs that look alike come from different tables or passages of the source.
Experiments:
folate receptor = molecular target: T1, folate receptor (Homo sapiens, UniProt P15328); assay: Relative affinity assay (displacement of [3H]FA bound to FR on KB cells); assay type: binding; conditions: 100 nmol/L [3H]FA, 1 h at 37° C.
T1 construct: endogenous in cells; host or cells: KB cells
Method: FR-positive KB cells were seeded in 24-well Falcon plates and allowed to form adherent monolayers (>90% confluent) overnight in FFRPMI/HIFCS. Spent incubation medium was replaced with FFRPMI supplemented with 10% HIFCS and containing 100 nmol/L of [^3H]FA in the absence and presence of increasing concentrations of unlabeled FA or the test conjugate. Cells were incubated for 1 h at 37° C. and then rinsed thrice with 0.5 mL PBS. Five hundred microliters of 1% SDS in PBS were added to each well; after 5 min, cell lysates were collected, transferred to individual vials containing 5 mL of scintillation cocktail, and then counted for radioactivity.
Cells exposed to only the [3H]FA in FFRPMI (no competitor) were designated as negative controls, whereas cells exposed to the [3H]FA plus 1 mmol/L unlabeled FA served as positive controls. Disintegrations per minute (DPM) measured in the latter samples (representing nonspecific binding of label) were subtracted from the DPM values from all samples.

Calf thymus DNA (CT-DNA) = assay: DNA crosslinking assay (ethidium bromide fluorescence); assay type: biochemical
Method: (§1) Calf thymus DNA (CT-DNA) was combined with increasing concentrations of Conjugate 1 (0.14 to 33.3 pM) or Conjugate 1+/− DTT. CT-DNA+Melphalan was used as a positive control and CT-DNA+DMSO was used as a negative control. These solutions were incubated at 37° C. for 2 hours. The solutions were then mixed with ethidium bromide and incubated for 2 hours at room temperature. Fluorescence (Ex: 535 nm, Em: 605 nm) from these samples was measured on the Fluoroskan II fluorimeter. Next, the samples were heated to 104° C. for 5 minutes, cooled on ice for 5 minutes, kept at RT for 15 minutes and fluorescence measured. % crosslinking of each sample was calculated using the fluorescence values from the positive and negative controls.
as §1, with “5 (1.1” for “1 (0.14”, “75” for “33.3”, “5+/−” for “1+/−”, “DTT.” for “DTT. CT-DNA+Melphalan was used as a positive control and CT-DNA+DMSO was used as a negative control.”

MDA-MB231 cells = assay: 3H-thymidine incorporation in MDA-MB231 cells; assay type: cell-based, human; conditions: MDA-MB-231 cells, 100 μM folic acid
Method: MDA-MB231 (human breast cancer) cells were seeded in 12-well Falcon plates and allowed to form nearly confluent monolayers overnight in FFRPMI/HIFCS. Designated wells received medium containing 100μM folic acid (nontoxic FR blocker) and were used to determine the targeting specificity. Each well then received increasing concentrations of Conjugate 1 (n=4). Cells were pulsed for 2 h at 37° C., rinsed with medium, and then chased in fresh medium up to 72 h. Spent medium was aspirated and replaced with medium containing [3H]thymidine. Following a 2 h incubation, cells were washed with PBS and then treated with 5% trichloroacetic acid. The trichloroacetic acid was aspirated and cells were solubilized in 0.25 N sodium hydroxide. Each solubilized sample were transferred to scintillation vials containing Ecolume scintillation cocktail and counted in a liquid scintillation counter. Final results were expressed as the percentage of [3H]thymidine incorporation relative to untreated controls and IC50 were values calculated using GraphPad Prism software.

KB tumor = assay: Antitumor activity in large KB tumor model; assay type: in vivo, mice; conditions: for KB tumor size compared to untreated control: 0.5 μmol/kg SIW for two weeks
Method: Female Balb/c nu/nu mice were fed ad libitum with folate-deficient chow (Harlan diet #TD01013) for the duration of the experiment. KB tumor cells were inoculated subcutaneously at the right flank of each mouse. Mice were dosed after the tumors reached an average of 100 and 180 mm^3 through the lateral tail vein under sterile conditions in a volume of […] of phosphate-buffered saline (PBS).
(§2) Growth of each s.c. tumor was followed by measuring the tumor two times per week. Tumors were measured in two perpendicular directions using Vernier calipers, and their volumes were calculated as 0.5×L×W^2, where L=measurement of longest axis in mm and W=measurement of axis perpendicular to L in mm.

KB cells = assay type: cell-based, human; conditions: read-out: IC50 value, 3H-thymidine incorporation
Method: The conjugates described herein were evaluated using an in vitro cytotoxicity assay that predicted the ability of the drug to inhibit the growth of the corresponding targeted cells, such as, but not limited to the following
It is to be understood that the choice of cell type can be made on the basis of the susceptibility of those selected cells to the drug that forms the conjugate, and the relative expression of the cell surface receptor or target antigen. The test conjugates were conjugates of a cell surface receptor or target antigen binding compound and PBD prodrugs, poly-PBD prodrugs, and mixed PBDs, as described herein. The test cells were exposed to varying concentrations of the conjugates, and optionally also in the absence or presence of at least a 100-fold excess of the unconjugated cell surface receptor or target antigen binding compound for competition studies to assess activity as being specific to the cell surface receptor or target antigen.
KB cells were seeded in individual 24-well Falcon plates and allowed to form nearly confluent monolayers overnight in folate free Roswell Park Memorial Institute (FFRPMI)/Heat-Inactivated Fetal Calf Serum (HIFCS). Thirty minutes prior to the addition of folate-conjugate, spent medium was aspirated from all wells and replaced with either fresh FFRPMI or FFRPMI supplemented with 100 μM folic acid. […] Cells were pulsed for 2 h at 37° C., rinsed 4 times with 0.5 mL of medium and then chased in 1 mL of fresh medium up to 72 h. Spent medium was aspirated from all wells and replaced with fresh medium containing 5 μCi/mL of ^3H-thymidine. Following a 2 h incubation at 37° C., cells were washed 3 times with 0.5 mL of PBS and then treated with 0.5 mL of ice-cold 5% trichloroacetic acid per well. After 15 min, the trichloroacetic acid was aspirated and the cells solubilized by the addition of 0.5 mL of 0.25 N sodium hydroxide for 15 min at room temperature. Four hundred and fifty […] of each solubilized sample were transferred to scintillation vials containing 3 mL of Ecolume scintillation cocktail and counted in a liquid scintillation counter. Final results were expressed as the percentage of ^3H-thymidine incorporation relative to untreated controls.

[1] = Toxicity in KB tumor bearing mice; assay type: in vivo; conditions: 0.5 μmol/kg, once a week for two weeks
Method: The percentage weight change of the test animals was determined on selected days post-tumor inoculation (PTI), and during dosing. The results were graphed.

ST070 ovarian PDX tumors = assay: In vivo activity against ovarian tumors, ST070; set-up: species or system mice; conditions: 15.0 mg/kg SIW for two weeks
Method: (§3) Mice were maintained and tumor volumes were measures according to Method 3.
(§4) Primary human Ovarian model ST070 fragments (2-4 mm in diameter) were inoculated subcutaneously at the right flank of each mouse. Mice were randomized into experimental groups of 7 mice each and test articles were injected through the lateral tail vein under sterile conditions in a volume of 200 μL of phosphate-buffered saline (PBS).

[2] = test system: Endometrial PDX tumor (ST040); assay: In vivo activity against endometrial tumors, ST040; set-up: species or system mice; conditions: 15 mg/kg SIW for two weeks
Method: Female Balb/c nu/nu mice were fed ad libitum with folate-deficient chow (Harlan diet #TD01013) for the duration of the experiment. Primary human Endometrial model ST040 fragments (2-4 mm in diameter) were inoculated subcutaneously at the right flank of each mouse. Mice were randomized into experimental groups of 7 mice each and test articles were injected through the lateral tail vein under sterile conditions in a volume of 200 μL of phosphate-buffered saline (PBS). These studies were performed at South Texas Accelerated Research Therapeutics, 4383 Medical Drive, San Antonio, Tex. 78229.
as §2, with “week until a volume of 1200 mm^3 was reached.” for “week.”

TNBC PDX tumor = assay: In vivo activity against triple negative breast tumors (FIG. 38); set-up: species or system mice; conditions: 1.0 μmol/kg SIW for two weeks
Method: as §3
as §4, with “TNBC” for “Ovarian”, “ST502 (2-4 mm in diameter) or primary human TNBC model ST738” for “ST070 fragments”

[3] = 0.5 μmol/kg, once a week for two weeks
[4] = with excess folate (100 μM folic acid)
[5] = without excess folate, 2 h pulse, chase up to 72 h

T1 sequence (P15328 25-234): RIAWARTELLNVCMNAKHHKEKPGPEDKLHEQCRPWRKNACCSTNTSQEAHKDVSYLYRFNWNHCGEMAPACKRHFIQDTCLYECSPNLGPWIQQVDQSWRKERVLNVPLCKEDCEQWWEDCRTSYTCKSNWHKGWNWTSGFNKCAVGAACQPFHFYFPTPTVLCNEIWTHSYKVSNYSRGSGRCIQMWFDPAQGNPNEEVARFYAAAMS

With C=C1C[C@H]2C=Nc3cc(OCCCCCOc4cc5c(cc4OC)C(=O)N4CC(=C)C[C@H]4[C@H](O)N5C(=O)OCC(C)SSC[C@H](NC(=O)[C@H](CC(=O)O)NC(=O)[C@H](CC(=O)O)NC(=O)[C@H](CCCNC(=N)N)NC(=O)[C@H](CC(=O)O)NC(=O)CC[C@H](NC(=O)c4ccc(NCc5cnc6nc(N)[nH]c(=O)c6n5)cc4)C(=O)O)C(=O)O)c(OC)cc3C(=O)N2C1 (stereo partly drawn) [Conjugate 1] the “relative binding affinity toward the folate receptor, fold lower than that of folic acid” value (folate receptor) was roughly 4.2 fold, the “DNA crosslinking by reduced form” value (Calf thymus DNA (CT-DNA); treated with DTT) was “crosslink with DNA” and the “DNA crosslinking by intact conjugate” value (Calf thymus DNA (CT-DNA); without DTT) was “not able to crosslink DNA”. The “cytotoxic activity in the presence of an excess of free folate” value (MDA-MB231 cells) was “significant reduction in activity” and the cures (KB tumor; [3]) was 100%.
Work on C=C1C[C@H]2C=Nc3cc(OCCCCCOc4cc5c(cc4OC)C(=O)N4CC(=C)C[C@H]4[C@H](O)N5C(=O)OCCSSC[C@H](NC(=O)[C@H](CC(=O)O)NC(=O)[C@H](CC(=O)O)NC(=O)[C@H](CCCNC(=N)N)NC(=O)[C@H](CC(=O)O)NC(=O)CC[C@H](NC(=O)c4ccc(NCc5cnc6nc(N)[nH]c(=O)c6n5)cc4)C(=O)O)C(=O)O)c(OC)cc3C(=O)N2C1 [Conjugate 3] yielded a pIC50 (KB cells; [4]) of 8.52, a pIC50 (KB cells; [5]) of 10.41 and a complete responses (KB tumor; [3]) of 100%. For the same compound, the “day on which mice had to be euthanized due to toxicity” value [1] was 48 days.
With C=C1C[C@H]2C=Nc3cc(OCCCCCOc4cc(N)c(C(=O)N5CC(=C)C[C@H]5C5CCCN5C(=O)OC[C@@H](SSC[C@H](NC(=O)[C@H](CC(=O)O)NC(=O)[C@H](CC(=O)O)NC(=O)[C@H](CCCNC(=N)N)NC(=O)[C@H](CC(=O)O)NC(=O)CC[C@H](NC(=O)c5ccc(NCc6cnc7nc(N)[nH]c(=O)c7n6)cc5)C(=O)O)C(=O)O)C(C)C)cc4OC)c(OC)cc3C(=O)N2C1 (stereo partly drawn) [Conjugate 12] the “PRs (partial responses)” value (KB tumor; [3]) was 100% and the “day on which mice had to be euthanized due to toxicity” value [1] was 40 days.
In the case of C=C1C[C@H]2C=Nc3cc(OCCCCCOc4cc(NC(=O)OCCSSC[C@H](NC(=O)[C@H](CC(=O)O)NC(=O)[C@H](CC(=O)O)NC(=O)[C@H](CCCNC(=N)N)NC(=O)[C@H](CC(=O)O)NC(=O)CC[C@H](NC(=O)c5ccc(NCc6cnc7nc(N)[nH]c(=O)c7n6)cc5)C(=O)O)C(=O)O)c(C(=O)N5CC(=C)C[C@H]5/C=N/OC)cc4OC)c(OC)cc3C(=O)N2C1 [Conjugate 16], the pIC50 (KB cells; [4]) was 8.30, the pIC50 (KB cells; [5]) was 10.15 and the complete responses (KB tumor; [3]) was 40%. The cures (KB tumor; [3]) was 60%.
With C=C1CC(/C=N/OC)N(C(=O)c2cc(OC)c(OCCCCCOc3cc4c(cc3OC)C(=O)N3CC(=C)C[C@H]3C=N4)cc2NC(=O)OCC(C)(C)SSCCC(=O)NCCNC(=O)CCN2C(=O)CC(SC[C@H](NC(=O)[C@H](CC(=O)O)NC(=O)[C@H](CC(=O)O)NC(=O)[C@H](CCCNC(=N)N)NC(=O)[C@H](CC(=O)O)NC(=O)CC[C@H](NC(=O)c3ccc(NCc4cnc5nc(N)[nH]c(=O)c5n4)cc3)C(=O)O)C(=O)O)C2=O)C1 (stereo partly drawn) [Conjugate 18] the pIC50 (KB cells; [4]) was 8.70, the pIC50 (KB cells; [5]) was 10.19 and the “KB tumor size compared to untreated control” value (KB tumor) was “decreased KB tumor size”.
With C=C1C[C@H]2C=Nc3cc(OCCCCCOc4cc(NC(=O)OCC(C)(C)SSCCC(=O)NCCNC(=O)CCOCCOCCOCCOCCOCCOCCOCCOCCOCCOCCOCCOCCNC(=O)CCN5C(=O)CC(SC[C@H](NC(=O)[C@H](CC(=O)O)NC(=O)[C@H](CC(=O)O)NC(=O)[C@H](CCCNC(=N)N)NC(=O)[C@H](CC(=O)O)NC(=O)CC[C@H](NC(=O)c6ccc(NCc7cnc8nc(N)[nH]c(=O)c8n7)cc6)C(=O)O)C(=O)O)C5=O)c(C(=O)N5CC(=C)C[C@H]5/C=N/OC)cc4OC)c(OC)cc3C(=O)N2C1 (stereo partly drawn) [Conjugate 20] the pIC50 (KB cells; [4]) was 9.15, the pIC50 (KB cells; [5]) was 10.40 and the “KB tumor size compared to untreated control” value (KB tumor) was “decreased KB tumor size”.
In the case of CC(=O)O[C@H]1C(=O)[C@@]2(C)[C@H]([C@H](OC(=O)c3ccccc3)[C@]3(O)C[C@H](OC(=O)[C@H](O)[C@@H](NC(=O)c4ccccc4)c4ccccc4)C(C)=C1C3(C)C)[C@]1(OC(C)=O)CO[C@@H]1C[C@@H]2O [paclitaxel], the “tumor size compared to untreated control” value (ST070 ovarian PDX tumors) was “did not have decreased tumor size” and the partial response subjects [2] was 0%.
For erubulin mesylate, the “TNBC PDX tumor size compared to untreated control” value (TNBC PDX tumor) was “did not decrease TNBC PDX tumor size”.
